# Results taken from patent US12453708B2, “Aminonaphthoquinone compounds for treatment and/or prevention of fibrosis diseases” (CALGENT BIOTECHNOLOGY CO., LTD., priority 2015, dated 2025).
# Key:
# [1] = system: thrombin-induced CTGF expression in WI-38 cells; experiment: thrombin-induced CTGF expression in WI-38 cells (Western blot); type: cell-based, human; settings: WI-38 lung fibroblasts, 0.3, 1, 3 or 10 μM for 30 min before and during 2 h thrombin (1 U/ml)
# Protocol: (§1) FIGS. 3 (A) and (B) show the effect of L056 on thrombin-induced CTGF expression in WI-38 cells. WI-38 lung fibroblasts were incubated with different concentrations of L056 (0.3, 1, 3 or 10 μM) for 30 min before and during incubation for 2 h with thrombin (1 U/ml). […] (A), Western blot plot; (B), Quantitative assay of Western blot. WI-38 cells, a normal human embryonic lung fibroblast cell line, were obtained from American Type Culture Collection (Manassas, VA). Cells were grown in MEM nutrient mixture, containing 10% FCS, 2 mM L-glutamine, 0.1 mM NEAA, 1 mM sodium pyruvate, 50 U/ml penicillin G, and 100 µg/ml streptomycin, in a humidified 37° C. incubator with 5% CO2 Cells were used between passages 18 and 30 for all experiments. After reaching confluence, cells were seeded onto 6-cm dishes for immunoblotting. Western blot analyses were performed as described previously (Chen B C, Chang Y S, Kang J C, Hsu M J, Sheu J R, Chen T L, et al. Peptidoglycan induces nuclear factor-kappaB activation and cyclooxygenase-2 expression via Ras, Raf-1, and ERK in RAW 264.7 macrophages. J Biol Chem 2004; 279:20889-97). […] The immunoreactivity was detected using enhanced chemiluminescence (ECL) following the manufacturer's instructions. Quantitative data were obtained using a computing densitometer with scientific imaging systems (Kodak, Rochester, NY). […]
# [2] = system: TGF-β-induced collagen expression in WI-38 cells; experiment: TGF-β-induced collagen expression in WI-38 cells (Western blot, immunofluorescence); type: cell-based, human; settings: WI-38 lung fibroblasts, 0.3, 1, 3 or 10 μM, TGF-β (10 ng/mL)
# Protocol: as §1, with “FIGS. 4 (A), (B)” for “FIGS. 3 (A)”, “and (C)” for “and (B)”, “on TGF-β-induced collagen” for “on thrombin-induced CTGF”, “with TGF-β (10 ng/mL).” for “with thrombin (1 U/ml).”, “Western blot; (C), Immunofluorescence plot.” for “Western blot.”
compound,measurement,setting,value
"O=C(Nc1ccncc1)c1ccc(CNC2=C(Cl)C(=O)c3ccccc3C2=O)cc1 [Example L056, 4-(((3-chloro-1,4-dioxo-1,4-dihydronaphthalen-2-yl)amino)methyl)-N-(pyridin-4-yl)benzamide]",thrombin-induced CTGF production/expression,[1],significantly inhibited
same,thrombin-induced CTGF production/expression,[1]; listed as MPTOL0560,inhibited
same,TGF-β-induced collagen production/expression,[2],significantly inhibited
same,TGF-β-induced collagen production/expression,[2]; listed as MPTOL056,inhibited
